For series [1], the target named is T1, BCL-xL (Homo sapiens, UniProt Q07817).
T1 construct: purchased R&D 894-BX-050
Put plainly: Binding activity for BCL-xL (HTRF, biotin-labeled BIM). The conditions noted are these: His-tagged BCL-xL. As for the experimental part:
In vitro BCL-xL-binding activity was tested by the following method.
Reagents used in this experiment: His-tagged BCL-xL protein (R&D, Cat #894-BX-050); biotin-labeled BIM protein (R&D, Cat #3526/1); binding buffer (cisbio, Cat #62DLBDDF); assay buffer (cisbio, Cat #62DB1FDG); MAb anti-6His-Eu cryptate (cisbio, Cat #61HI2KLA); and affinity streptomycin linked XL665 (cisbio, Cat #611SAXLA).
The in vitro binding assay described below can determine the binding activity of test compounds for BCL-xL.
The test compounds were dissolved in dimethyl sulfoxide and diluted to gradient concentrations as required for the experiment, and the compounds at various concentrations formulated in dimethyl sulfoxide were subjected to a 100-fold dilution with a binding buffer. BCL-xL was diluted to the corresponding concentration with a binding buffer, and added to a white 384-well plate at 4 μL/well. Then the diluted test compound was added to the white 384-well plate at 2 μL/well. The plate was incubated at 25° C. for 1 h after the mixture was uniformly mixed. Biotin-labeled BIM protein was diluted to the corresponding concentration with a binding buffer, and added to a white 384-well plate at 4 μL/well. The plate was incubated at 25° C. for 2 h after the mixture was uniformly mixed. The MAb anti-6His-Eu cryptate and the affinity streptomycin linked XL665 were each diluted to the corresponding concentration with an assay buffer, and added to a white 384-well plate at 5 μL/well. The plate was incubated at 25° C. for 2-4 h after the mixture was uniformly mixed. The signal values were read with the HTRF program in a microplate reader (BMG Labtech, model: PHERAstar FS).

The test system of series [2] is NCI-H146 cells. Put plainly: Inhibition of proliferation of NCI-H146 cells (CellTiter-Glo). The format is cell-based. The conditions noted are these: Homo sapiens, 72 h, 3 days, read-out: Inhibitory activity IC50 (nM) for the proliferation of NCI-H146 cells. The procedure:
In vitro inhibitory activity for the proliferation of RS4;11 cells and NCI-H146 cells was tested by the following method.
Reagents used in this experiment: RPMI-1640 medium (HyCLone, Cat #SH30243018); fetal bovine serum (Gibco, Cat #10099-141); pancreatin (Gibco, Cat #25200-072); Cell Titer-Glo (Promega, Cat #G7571).
Materials used: RS4;11 cells (Nanjing Kebai Biotechnology Co., Ltd, Cat #CBP60641); and NCI-H146 cells (ATCC, Cat #HTB-173).
The in vitro cell proliferation assay described below can determine the inhibitory activity of the test compounds for the proliferation of RS4;11 cells and NCI-H146 cells.
RS4;11 cells (or NCI-H146 cells) were cultured in an RPMI-1640 culture medium containing 10% FBS, and were passaged for 2-3 times a week in a passage ratio of 1:3 or 1:5. During passage, the cells were transferred to a centrifuge tube, and centrifuged at 1200 rpm for 3 min. The supernatant was discarded, and fresh culture medium was added to resuspend the cells. 90 μL of cell suspension was added to a 96-well cell culture plate, wherein RS4;11 cells and NCI-H146 cells were added at a density of 2.22×10^5 cells/mL. Only 100 μL of complete medium (RPMI-1640 medium containing 10% FBS) was added to the periphery of the 96-well plate. The plate was incubated in an incubator for 24 h (37° C., 5% CO2).
The test sample was diluted to a proper concentration gradient with dimethyl sulfoxide as required for the experiment. 5 μL of the solution of the test compound prepared in a gradient concentration was added to 95 μL of fresh culture medium and mixed uniformly, and then 10 μL of the culture medium containing the above compound was added to a cell culture plate. The cell culture plate was incubated in an incubator for 3 days (37° C., 5% CO2). 50 μL of CellTiter-Glo reagent was added into each well of the 96-well cell culture plate. The plate was let stand for 5-10 min away from the light at room temperature. The chemiluminescence signals were read by a microplate reader (BMG Labtech, model: PHERAstar FS) and the data were processed by GraphPad software.

A short description of series [3]: Pharmacokinetic evaluation in mice (iv, LC/MS/MS plasma). The conditions noted are these: intravenous administration. The format is in vivo. The procedure: The drug concentration in the plasma of the test animals (mice) at different time points after intravenous (iv) administration of compound 10 and AZD4320 was determined by an LC/MS/MS method. The pharmacokinetic behavior of the compounds of the present disclosure in mice was studied and their pharmacokinetic profile was valuated.
18 C57 mice, female, randomly divided into 2 groups, purchased from Zhejiang Vital River Laboratory Animal Technology Co., Ltd, animal production license number: SCXK (Shanghai) 2017-0005.
A certain amount of compound 10 was weighed, dissolved by adding 5% by volume of DMSO and 5% Tween 80 (Shanghai Titan Scientific Co., Ltd.), and then prepared into a 0.1 mg/mL clear solution by adding 90% normal saline. Compound AZD4320 was formulated as with compound 10. […]
The mice were intravenously administered with compound 10, and 0.1 mL of blood was collected before the administration and 5 min, 0.25 h, 0.5 h, 1.0 h, 2.0 h, 4.0 h, 8.0 h, 11.0 h and 24.0 h after the administration, put into an EDTA-K2 anticoagulation tube, centrifuged at 10,000 rpm for 1 min (4° C.). Plasma was separated within 1 hour, and stored at −20° C. for testing. The process from blood collection to centrifugation was performed under an ice bath.
The mice were intravenously administered with compound AZD4320, and 0.1 mL of blood was collected before the administration and 5 min, 0.25 h, 0.5 h, 1.0 h, 2.0 h, 4.0 h, 8.0 h, 11.0 h and 24.0 h after the administration, put into an EDTA-K2 anticoagulation tube, centrifuged at 10,000 rpm for 1 min (4° C.). Plasma was separated within 1 hour, and stored at −20° C. for testing. The process from blood collection to centrifugation was performed under an ice bath.
The content of the test compounds at different concentrations in plasma of mice after the administration was determined: 10 μL of plasma of mice at each time point after the administration was mixed with 200 μL of methanol (containing an internal standard solution camptothecin (100 ng/mL)); the mixture was vortexed for 1 min, and centrifuged for 10 min (18,000 r/min), and 3 μL of supernatant was taken for LC/MS/MS analysis.

T1 sequence (Q07817 whole entry): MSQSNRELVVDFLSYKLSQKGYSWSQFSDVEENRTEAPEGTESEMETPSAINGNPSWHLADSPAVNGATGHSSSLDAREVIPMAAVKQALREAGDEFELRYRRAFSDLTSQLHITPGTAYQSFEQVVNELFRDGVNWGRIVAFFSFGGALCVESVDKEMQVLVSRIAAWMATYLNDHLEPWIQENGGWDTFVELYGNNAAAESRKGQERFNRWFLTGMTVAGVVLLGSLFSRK

Regarding `O=C(NS(=O)(=O)c1ccc(N[C@@H](CSc2ccccc2)C[C@@H]2CCCN2CCO)c(S(=O)(=O)C(F)(F)F)c1)c1ccc(N2CCC([C@@H](O)c3ccccc3-c3ccc(Cl)cc3)CC2)cc1` [Example 2-9, 4-(4-((R)-(4′-chloro-[1,1′-biphenyl]-2-yl)(hydroxy)methyl)piperidin-1-yl)-N-((4-(((R)-1-((S)-1-(2-hydroxyethyl)pyrrolidin-2-yl)-3-(phenylthio)propan-2-yl)amino)-3-((trifluoromethyl)sulfonyl)phenyl)sulfonyl)benzamide], in series [1], the Ki came out at 0.07 nM. The IC50 in series [2] is 7 nM.

`CN(CCO)CC[C@H](CSc1ccccc1)Nc1ccc(S(=O)(=O)NC(=O)c2ccc(N3CCC([C@@H](O)c4ccccc4-c4ccc(C(F)(F)F)cc4)CC3)cc2)cc1S(=O)(=O)C(F)(F)F` [Example 2-10, 4-(4-((R)-hydroxy(4′-(trifluoromethyl)-[1,1′-biphenyl]-2-yl)methyl)piperidin-1-yl)-N-((4-(((R)-4-((2-hydroxyethyl)(methyl)amino)-1-(phenylthio)butan-2-yl)amino)-3-((trifluoromethyl)sulfonyl)phenyl)sulfonyl)benzamide]: the inhibitory constant (Ki) in series [1] is 0.07 nM. Also, the “Clearance CLz/F” value in series [3] (C57 mice, female, dose 1 mg/kg (table)) stood at 50.3 mL/min/kg. In series [3] (mice), the “Clearance in mice (in words)” value is “cleared slowly” and the “Elimination phase half-life compared with the positive control AZD 4320 (in words)” value is recorded as “longer elimination phase half-life than the positive control AZD 4320”. In addition, the AUC(0-t) in series [3] (mouse, plasma, C57 mice, female, dose 1 mg/kg (table), read-out: Area under curve AUC0-t) stood at 296 ng·h/mL. In addition, the half-life in series [3] (mouse, plasma, C57 mice, female, dose 1 mg/kg (table), read-out: Half-life T½ (converted)) is 780 min. Moreover, the MRT inf in series [3] (mouse, plasma, C57 mice, female, dose 1 mg/kg (table), read-out: Mean retention time MRT 0-∞) worked out at 7.3 h. The concentration at 5 min in series [3] (mouse, plasma, C57 mice, female, dose 1 mg/kg (table), read-out: Plasma Concentration C5 min) worked out at 608 ng/mL. Further, the IC50 in series [2] was determined as 4 nM.
